What was measured:
[1] = target: T1, system Xc^− (Homo sapiens, UniProt Q9UPY5); experiment: Cystine-induced glutamate release assay; assay type: cell-based; parameters: endogenous in cells; host or cells: H4 cells; details: H4 cells, sodium-free HEPES buffer, 50 μM L-Cystine, 2 hours, Amplex Red glutamate readout; read-out: pIC50 Cystine-induced glutamate release assay (converted)
T1 sequence (Q9UPY5 1-501): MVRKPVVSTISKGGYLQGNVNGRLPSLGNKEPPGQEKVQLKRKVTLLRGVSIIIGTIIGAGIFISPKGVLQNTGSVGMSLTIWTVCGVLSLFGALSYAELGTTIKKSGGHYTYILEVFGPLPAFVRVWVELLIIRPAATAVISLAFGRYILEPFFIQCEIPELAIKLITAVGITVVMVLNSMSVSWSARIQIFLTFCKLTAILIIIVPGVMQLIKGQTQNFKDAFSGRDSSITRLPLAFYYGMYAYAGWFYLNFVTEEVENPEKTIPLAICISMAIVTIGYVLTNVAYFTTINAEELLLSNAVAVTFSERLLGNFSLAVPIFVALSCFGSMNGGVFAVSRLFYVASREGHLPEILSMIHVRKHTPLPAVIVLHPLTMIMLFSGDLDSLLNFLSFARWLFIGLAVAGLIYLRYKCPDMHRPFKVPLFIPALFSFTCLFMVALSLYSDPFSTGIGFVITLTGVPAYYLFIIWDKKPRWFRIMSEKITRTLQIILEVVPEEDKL
T1 sequence (P08195 1-529 partner): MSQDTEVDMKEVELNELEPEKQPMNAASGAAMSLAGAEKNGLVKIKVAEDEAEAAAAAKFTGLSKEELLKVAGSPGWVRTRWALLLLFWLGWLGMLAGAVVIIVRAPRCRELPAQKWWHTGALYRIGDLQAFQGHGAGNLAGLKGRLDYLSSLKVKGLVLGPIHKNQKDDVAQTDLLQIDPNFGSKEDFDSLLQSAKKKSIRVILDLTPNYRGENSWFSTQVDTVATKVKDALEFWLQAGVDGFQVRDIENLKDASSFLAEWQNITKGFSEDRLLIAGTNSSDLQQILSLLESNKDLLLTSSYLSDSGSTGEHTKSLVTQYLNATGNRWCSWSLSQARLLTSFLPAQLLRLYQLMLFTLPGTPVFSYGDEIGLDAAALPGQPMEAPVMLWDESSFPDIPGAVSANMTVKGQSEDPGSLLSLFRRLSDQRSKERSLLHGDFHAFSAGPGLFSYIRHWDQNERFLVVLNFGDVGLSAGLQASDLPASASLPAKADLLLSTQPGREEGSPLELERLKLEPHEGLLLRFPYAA
Excerpt: (§1) The effect of compounds of Formula (I) on the system Xc^− functionality was examined in two independent cell assays: (i) measurement of cystine-induced glutamate release; and (ii) measurement of [^14C]L-Cystine uptake.
(§2) As described above, System Xc^−, also known as the cystine/glutamate antiporter, is an amino acid transporter that mediates the extrusion of intracellular L-glutamate outside the cell and the uptake of extracellular L-cystine into the cell.
(§3) By measuring respectively, the concentration of glutamate released outside the cell and the L-cystine uptaken in the cell, with increasing concentrations of compounds of formula (I) according to the present invention, the efficacy of said compounds to inhibit the System Xc^− function can be evaluated.
(§4) The efficacy of the compounds to inhibit system Xc^− is represented by measuring the IC50 which corresponds to the concentration of compound necessary to inhibit 50% of the signals from the two control groups; DMSO 1% and Erastin 50 μM in the respective assays. pIC50 values correspond to −log of the IC50 in Molar.
Measurement of cystine-induced glutamate release indicates levels of glutamate (outside of the cell) that are dependent on system Xc^− antiporter function. Upon the addition of L-Cystine to H4 cells, intracellular glutamate is counter-transported and exported in the supernatant.
In this assay, the medium is devoid of sodium to prevent the transport of glutamate by sodium-dependent excitatory amino acid transporters (EAATs). H4 cells were plated on 384-well culture plate at 1×10^4 cells/well in Dulbecco's Modified Eagle Medium (DMEM) with L-glutamine, penicillin/streptomycin and 10% fetal bovine serum (all from ThermoFisher Scientific) and incubated in a humidified CO2 incubator at 37° C. After 2 days, cells were washed 4 times with prewarmed sodium-free HEPES buffer (contents in mM: HEPES 10, KCl 5.4, CaCl2 2.5, MgCl2 1, KH2PO4 0.4, D-Glucose 5, Choline chloride 140), pH 7.4. Glutamate release was induced by addition of 50 μM of L-Cystine (Sigma-Aldrich), together with a test compound of Formula (I) at 1% final DMSO concentration. After 2 hours of incubation in the culture incubator, supernatants were transferred to a low-binding polypropylene 384-well plate to determine L-glutamate concentration using Amplex™ Red Glutamic Acid Assay Kit (ThermoFisher Scientific). Briefly, 10 μL of Amplex™ Red working solution was added to 10 μL of the supernatant, then the mixture was incubated for 30 min at 37° C. Fluorescence intensity was measured by EnVision microplate reader (PerkinElmer).

[2] = target: T1, system Xc^−; experiment: [^14C]L-Cystine uptake assay; assay type: cell-based; parameters: endogenous in cells; host or cells: H4 cells; details: H4 cells, sodium-free HEPES buffer, 0.5 μM L-[14C]Cystine and 4.5 μM L-Cystine, 1 hour at 37° C.; read-out: pIC50 [^14C] L-Cystine uptake assay (converted)
Excerpt: as §1, §2, §3, §4
In this assay, the medium is devoid of sodium to prevent the transport of glutamate by sodium-dependent excitatory amino acid transporters (EAATs). H4 cells were plated on a 96-well CytoStar-T scintillating microplate (PerkinElmer) at 5×10^4 cells/well in the medium described above. After 1 day, cells were washed one time with the sodium-free HEPES buffer and preincubated with test compounds of Formula (I) (1% final DMSO) for 15 min. Uptake was initiated by adding 0.5 μM L-[1,2, 1′,2′-^14C]Cystine (0.02 mCi/mL, PerkinElmer, Waltham, US) and 4.5 μM L-Cystine (Sigma-Aldrich). After 1 hour at 37° C., plates were counted in a MicroBeta^2 microplate counter (PerkinElmer).

Structure (SMILES) | IC50 [1] | IC50 [2]
Cc1cc2c(cn1)-c1ccc(C)nc1CC(=O)N2CC(=O)Nc1ccc(C(F)(F)F)cc1 [#71, 2-(5,13-dimethyl-9-oxo-4,8,12-triazatricyclo[9.4.0.0^2,7]pentadeca-1(11),2(7),3,5,12,14-hexaen-8-yl)-N-[4-(trifluoromethyl)phenyl]acetamide] | 100 to 501 nM | 100 to 501 nM
Cc1cc2c(c(F)n1)-c1cc(C)nn1CC(=O)N2CC(=O)Nc1ccc(C(F)(F)F)cc1 [#106, 2-(14-fluoro-4,12-dimethyl-8-oxo-5,6,9,13-tetrazatricyclo[8.4.0.0^2,6]tetradeca-1(10),2,4,11,13-pentaen-9-yl)-N-[4-(trifluoromethyl)phenyl]acetamide] | 39.8 to 100 nM | 100 to 501 nM
Cc1cc2c(cn1)-c1cc(C)c(C)cc1N(CC(=O)Nc1ccc(C(F)(F)F)cc1)C(=O)C2 [#21, N-[4-(trifluoromethyl)phenyl]-2-(3,9,10-trimethyl-6-oxo-5H-pyrido[4,3-d][1]benzazepin-7-yl)acetamide] | 100 to 501 nM | 39.8 to 100 nM
Cc1cc2c(c(Cl)n1)-c1cccnc1C(C)C(=O)N2CC(=O)Nc1ccc(C(F)(F)F)cc1 (centres unmarked) [#114, 2-(3-chloro-5,10-dimethyl-9-oxo-4,8,12-triazatricyclo[9.4.0.0^2,7]pentadeca-1(11),2,4,6,12,14-hexaen-8-yl)-N-[4-(trifluoromethyl)phenyl]acetamide] | 15.8 to 39.8 nM | < 15.8 nM
Cc1cc2c(c(F)n1)-c1ccnnc1C(C)C(=O)N2CC(=O)Nc1ccc(C(F)(F)F)cc1 (centres unmarked) [#172, 2-(3-fluoro-5,10-dimethyl-9-oxo-4,8,12,13-tetrazatricyclo[9.4.0.0^2,7]pentadeca-1(11),2(7),3,5,12,14-hexaen-8-yl)-N-[4-(trifluoromethyl)phenyl]acetamide] | 15.8 to 39.8 nM | 15.8 to 39.8 nM

Now from value to compound:

IC50 [1] | IC50 [2] | Structure (SMILES)
39.8 to 100 nM | 15.8 to 39.8 nM | Cc1cc2c(c(F)n1)-c1cncnc1[C@@H](C)C(=O)N2CC(=O)Nc1ccc(C(F)(F)F)cc1 (single isomer, unassigned) [#202, Enantiomer (8R) or (8S) of 2-[15-fluoro-8,13-dimethyl-9-oxo-4,6,10,14-tetrazatricyclo[9.4.0.0^2,7]pentadeca-1(15),2(7),3,5,11,13-hexaen-10-yl]-N-[4-(trifluoromethyl)phenyl]acetamide]
< 15.8 nM | < 15.8 nM | CC1C(=O)N(CC(=O)Nc2ccc(C(F)F)cc2)c2cc(N3CC[C@@H]3CO)nc(F)c2-c2cccnc21 (stereo partly drawn) [#273, N-[4-(difluoromethyl)phenyl]-2-[3-fluoro-5-[(2R)-2-(hydroxymethyl)azetidin-1-yl]-10-methyl-9-oxo-4,8,12-triazatricyclo[9.4.0.0^2,7]pentadeca-1(15),2,4,6,11,13-hexaen-8-yl]acetamide]
< 15.8 nM | 15.8 to 39.8 nM | CC1C(=O)N(CC(=O)Nc2ccc(C(F)F)cc2)c2cc(N3CC(F)(F)C3)nc(F)c2-c2ccc(F)cc21 (single isomer, unassigned) [#291, 2-[3-(3,3-difluoroazetidin-1-yl)-1,9-difluoro-7-methyl-6-oxo-7H-pyrido[4,3-d][3]benzazepin-5-yl]-N-[4-(difluoromethyl)phenyl]acetamide]
< 15.8 nM | 15.8 to 39.8 nM | CC1C(=O)N(CC(=O)Nc2ccc(C(F)F)cc2)c2cc(C3(F)CC3)oc(=O)c2-c2cccnc21 (single isomer, unassigned) [#365, N-[4-(difluoromethyl)phenyl]-2-[5-(1-fluorocyclopropyl)-10-methyl-3,9-dioxo-4-oxa-8,12-diazatricyclo[9.4.0.0^2,7]pentadeca-1(15),2(7),5,11,13-pentaen-8-yl]acetamide]
< 15.8 nM | < 15.8 nM | Cc1cc2c(c(F)n1)-c1cc(F)cnc1[C@H](C)C(=O)N2CC(=O)Nc1ccc(Cl)c(F)c1 (single isomer, unassigned) [#260]

From patent publication US20260217708A1, “FUSED BENZAZEPINE DERIVATIVES FOR USE IN THE TREATMENT OF CANCER AND EPILEPSY” (UCB BIOPHARMA SRL, priority 2023, published 2026)
